Assays:
tubulin [1] = target: T1, tubulin; experiment: Tubulin binding assay (fluorescence titration, quenching of intrinsic tubulin fluorescence); design: species or system mammalian; details: 2 μM tubulin, 45 min at 37° C., double reciprocal plot; read-out: dissociation constant (Kd) for binding to tubulin
T1 construct: other: 2 μM tubulin, 45 min at 37° C., double reciprocal plot; rate and extent of tubulin polymerization; other: 25 μM or 100 μM
Procedure: Fluorescence titration for determining the tubulin binding parameters was performed as described previously (Gupta and Panda, 2002). In brief, 9-nitro-nos (0-100 μM) was incubated with 2 μM tubulin in 25 mM PIPES, pH 6.8, 3 mM MgSO4 and 1 mM EGTA for 45 min at 37° C. The relative intrinsic fluorescence intensity of tubulin was then monitored in a JASCO FP-6500 spectrofluorometer (JASCO, Tokyo, Japan) using a cuvette of 0.3-cm path length, and the excitation wavelength was 295 nm. The fluorescence emission intensity of 9-nitro-nos at this excitation wavelength was negligible. A 0.3-cm path-length cuvette was used to minimize the inner filter effects caused by the absorbance of 9-nitro-nos at higher concentration ranges. In addition, the inner filter effects were corrected using a formula Fcorrected=Fobserved·antilog [(Aex+Aem)/2], where Aex is the absorbance at the excitation wavelength and Aem is the absorbance at the emission wavelength. The dissociation constant (Kd) was determined by the formula: 1/B=Kd/[free ligand]+1, where B is the fractional occupancy and [free ligand] is the concentration of free noscapine or 9-nitro-nos. The fractional occupancy (B) was determined by the formula B=ΔF/ΔFmax, where ΔF is the change in fluorescence intensity when tubulin and its ligand are in equilibrium and ΔFmax is the value of maximum fluorescence change when tubulin is completely bound with its ligand. ΔFmax was calculated by plotting 1/ΔF versus 1/ligand using total ligand concentration as the first estimate of free ligand concentration.
Fluorescence titration for determining the tubulin binding parameters was performed as described previously. In brief, 9-F-nos, 9-Cl-nos, 9-Br-nos or 9-I-nos (0-100 μM) was incubated with 2 μM tubulin in 25 mM PIPES, pH 6.8, 3 mM MgSO4, and 1 mM EGTA for 45 min at 37° C. The relative intrinsic fluorescence intensity of tubulin was then monitored in a JASCO FP-6500 spectrofluorometer (JASCO, Tokyo, Japan) using a cuvette of 0.3-cm path length, and the excitation wavelength was 295 nm. The fluorescence emission intensity of noscapine and its derivatives at this excitation wavelength was negligible. A 0.3-cm path-length cuvette was used to minimize the inner filter effects caused by the absorbance of these agents at higher concentration ranges. In addition, the inner filter effects were corrected using a formula F corrected=F observe·antilog [(Aex+Aem)/2], where Aex is the absorbance at the excitation wavelength and Aem is the absorbance at the emission wavelength. The dissociation constant (Kd) was determined by the formula: 1/B=Kd/[free ligand]+1, where B is the fractional occupancy and [free ligand] is the concentration of 9-F-nos, 9-Cl-nos, 9-Br-nos or 9-I-nos. The fractional occupancy (B) was determined by the formula B=ΔF/ΔFmax, where ΔF is the change in fluorescence intensity when tubulin and its ligand are in equilibrium and ΔFmax is the value of maximum fluorescence change when tubulin is completely bound with its ligand. ΔFmax was calculated by plotting 1/ΔF versus 1/[free ligand].

[2] = system: CEM, CEM/VLB100, CEM/VM-1-5, 1A9 and 1A9/PTX22 cells; experiment: Immunofluorescence microscopy (microtubule and nuclear morphology); type: cell-based, human; details: 72 hours
Procedure: Cells adhered to poly-L-lysine coated coverslips were treated with 9-nitro-nos for 72 hours. After treatment, cells were fixed with cold (−20° C.) methanol for 5 min and then washed with phosphate-buffered saline (PBS) for 5 min. Non-specific sites were blocked by incubating with 100 μl of 2% BSA in PBS at 37° C. for 15 min. A mouse monoclonal antibody against α-tubulin (DM1A, Sigma) was diluted 1:500 in 2% BSA/PBS (100 μl) and incubated with the coverslips for 2 hours at 37° C. Cells were then washed with 2% BSA/PBS for 10 min at room temperature before incubating with a 1:200 dilution of a fluorescein-isothiocyanate (FITC)-labeled goat anti-mouse IgG antibody (Jackson ImmunoResearch, Inc., West Grove, Pa.) at 37° C. for 1 hour. Coverslips were then rinsed with 2% BSA/PBS for 10 min and incubated with propidium iodide (0.5 μg/ml) for 15 min at room temperature before they were mounted with Aquamount (Lerner Laboratories, Pittsburgh, Pa.) containing 0.01% 1,4-diazobicyclo(2,2,2)octane (DABCO, Sigma). Cells were then examined using confocal microscopy for microtubule morphology, and nuclear morphology to visualize DNA fragmentation (at least 100 cells were examined per condition).

tubulin [3] = system: T1, tubulin; experiment: Tubulin polymerization assay (light scattering at 550 nm); type: biochemical, mammalian; details: 25 μM or 100 μM
Procedure: Mammalian brain tubulin (1.0 mg/ml) was mixed with different concentrations of 9-nitro-nos (25 or 100 μM) at 0° C. in an assembly buffer (100 mM PIPES at pH 6.8, 3 mM MgSO4, 1 mM EGTA, 1 mM GTP, and 1M sodium glutamate). Polymerization was initiated by raising the temperature to 37° C. in a water bath. The rate and extent of the polymerization reaction were monitored by light scattering at 550 nm, using a 0.3-cm path length cuvette in a JASCO FP-6500 spectrofluorometer (JASCO, Tokyo, Japan) for 30 minutes.

Kd (tubulin [1]): 86 ± 6 µM
SMILES: COc1ccc2c(c1OC)C(=O)O[C@@H]2[C@H]1c2c(c([N+](=O)[O-])c3c(c2OC)OCO3)CCN1C [9-nitro-nos, (S)-6,7-dimethoxy-3-((R)-4-methoxy-6-methyl-9-nitro-5,6,7,8-tetrahydro-[1,3]dioxolo[4,5-g]isoquinolin-5-yl)isobenzofuran-1(3H)-one]
cellular and nuclear morphology (apoptosis) [2]: extensive terminal apoptotic figures with fragmented DNA pieces and perturbed microtubule arrays
rate and extent of tubulin polymerization (tubulin [3]): did not inhibit the rate or extent of tubulin polymerization
